The values below come from PMC10572563, “Application of Pluronics for Enhancing Aqueous Solubility of Lipophilic Microtubule Destabilizing Compounds on the Sea Urchin Embryo Model” (International Journal of Molecular Sciences, 2023).

Where “and” joins values, the source holds several entries; their conditions need not be identical. Equal values may be shown once. Read-outs that look alike come from different tables or passages of the source.

The test system of series [1] is sea urchin embryos. As to the method: Toxic effects were assessed by exposing fertilized eggs (5−18 min after fertilization) to 2-fold decreasing concentrations of Pluronics. Embryo development was monitored at room temperature until the beginning of active feeding (four-arm mid-pluteus stage). The effects were detected at the following developmental stages: cleavage (2.5 and 5.5–6 h after fertilization), hatched mid-blastula (8.5–9.5 h), mesenchyme blastula (~11 h), prism (20–21 h), early pluteus (25–27 h), and four-arm pluteus (34–35 h) (Figure S2). The effects were estimated quantitatively as no observed effect concentration (NOEC), minimum effective concentration (MEC), and minimum lethal concentration (MLC).

Series [2] in a line: Precipitation in 1 mM intermediate solutions (visual and microscopic examination). The conditions noted are these: for Appearance of 1 mM solution in 5% F127: 1 mM in 5% F127, room temperature; for Appearance of 1 mM/FSW intermediate solution: 1 mM in FSW. It is filed as physicochemical.
Protocol: Stock solutions of albendazole 1 and isoxazole 2 were prepared in DMSO and 2-pyrrolidone at 10 mM concentration, and stock solutions of chalcones 3 and 4 were prepared in DMSO at 10 mM concentration. […] The precipitation of compounds was analyzed via both visual and microscopic examination.
For series [3] the following is noted: pH 7.0; cited from earlier work.
Series [4] in a line: Aqueous solubility of chalcones in PBS or Pluronic solutions (UV absorbance of saturated supernatant). The following applies: for Increase of solubility: Pluronic P123 concentration up to 10%, 25 °C; for Increase of solubility / solubility: PBS pH 7.4; for Enhancement of solubility in aqueous medium: in the presence of 5% Pluronic 123; for solubility: phosphate-buffered saline (PBS) without Pluronics, aqueous with cosolvent or surfactant or cyclodextrin, kinetic from dmso stock, without Pluronics. It is filed as physicochemical. As to the method:
The absorbance of chalcone solutions in DMSO was measured using an Ultrospec 1100 Pro UV/Vis spectrophotometer. […] To this end, 100 mg/mL solutions of 3 and 4 in DMSO were prepared and diluted 10-fold either with neat PBS or with Pluronic solutions of various concentrations. Dilution with PBS yielded the precipitation of the most part of the solute. The precipitated chalcones were removed via centrifugation at 9000 rpm for 5 min. The supernatant represented a saturated solution of the chalcone in the aqueous medium. Then, the supernatants were 10–1000-fold diluted with DMSO, their absorbance was measured at 367 nm for 3 or 350 nm for 4, and the aqueous solubility of chalcones was calculated using the εDMSO values obtained previously. The solubility values were measured in 2–4 repetitions and presented in the graphs as the mean ± SD for p < 0.05.

[5] abbreviates: solvents in the in vivo sea urchin embryo assay.

In series [1] (setting [5]), `O=C1CCCN1` [2-pyrrolidone, 2-Pyrrolidone] displayed an NOEC of 0.1 % v/v.
Molecule `C[S+](C)[O-]` [DMSO] registered an NOEC in series [1] (setting [5]) of 0.2 % v/v.
`CCO` [EtOH] had an NOEC in series [1] (in vivo) of 0.5 % v/v.
For orientation: Aqueous solubility means how much of the substance goes into solution per volume. On to `CCCSc1ccc2nc(NC(=O)OC)[nH]c2c1` [compound 1, albendazole], for which, in series [2], the “Appearance of 1 mM solution in 5% F127” value is on record as “formed opaque 1 mM solution in 5% F127” and the “Appearance of 1 mM/FSW intermediate solution” value is given as “formed a thick suspension of fine crystals”. Further, in series [3], the Aqueous solubility is < 1 µg/mL.
For the molecule `COc1ccc(-c2cnoc2-c2cc(OC)c(OC)c(OC)c2)cc1` [compound 2], in series [2], the “Appearance of 1 mM solution in 5% F127” value is on record as “remained clear throughout four days of storage at room temperature” and the “Appearance of 1 mM/FSW intermediate solution” value is listed as “opaque, followed by the precipitation of crystals in the bottom of the vial”.
As a reminder, the solubility is how much of the substance goes into solution per volume. Lower therefore signals little dissolved substance. Regarding `COc1ccc(/C=C/C(=O)c2cc(OC)c(OC)c(OC)c2)cc1O` [compound 3], in series [2], the “Appearance of 1 mM/FSW intermediate solution” value was “clear without any visible signs of precipitation”. For the same molecule, in series [4], the Increase of solubility is given as 13 fold; the “Enhancement of solubility in aqueous medium” value was “enhanced by an order of magnitude”; the solubility is 344 µg/mL and 1000 µM.
Take `COc1ccc(/C=C/C(=O)c2cc(OC)c(OC)c(OC)c2)cc1` [compound 4]: the “Appearance of 1 mM/FSW intermediate solution” value in series [2] was “formed a thick suspension of fine crystals”. Moreover, in series [4], the Increase of solubility came to 19 fold; the “Enhancement of solubility in aqueous medium” value is on record as “enhanced by an order of magnitude”; the solubility was 88.7 µg/mL and 270 µM.
As to Pluronic P123, in series [1] (in vivo), the “MEC relative to CMC” value was ~ 6 times and the “Reduction of MEC” value turned out to be 4 times.
